Experimental data: US12544355B2, “Use of monascinol in preparation of fat-reducing product” (TIANJIN UNIVERSITY OF SCIENCE AND TECHNOLOGY, priority 2019, dated 2026)
Marks after values point to notes of the source that are not given here.

Key:
[1] = tested on: HepG2 cells modeled with oleic acid; assay: Cytotoxicity (MTT) on HepG2 cells modeled with oleic acid; type: cell-based; conditions: 24 h, 0.3 mmol/L oleic acid
Procedure: (§1) HepG2 cells in good growth condition were inoculated in a 6-well plate at 2*10^5 cells/mL, 1 mL per well. When cell adhesion rate reached 80%-90%, the medium was discarded. A blank group and a model group were set, where a complete medium was added to the blank group, 0.3 mmol/L oleic acid induction solution diluted with a complete medium was added to the model group, at 2 mL per well; after 24 hours of culture, the accumulation of lipid drops in the cells was observed by oil red 0 staining.
• a. HepG2 cells in good growth condition were inoculated in a 96-well plate at 5*10^4 cells/mL, 100 μL per well. When the cell adhesion rate reached 80%-90%, the medium was discarded. • b. MS and MC were each dissolved in dimethyl sulfoxide (DMSO) to prepare a 5 mg/mL of mother liquid, and the mother liquid was stored at −20° C. The 5 mg/mL of mother liquid was diluted with a complete medium containing 0.3 mmol/L of oleic acid to obtain MS sample concentrations or MC sample concentrations (2, 4, 6, 8, 10, 12 μg/mL) required for the experiment, ensuring that a final concentration of DMSO in each sample is 0.5%. • c. […]
After 24 h, the survival rate of HepG2 cells in each group was detected based on a MTT experiment method. • d. results are shown in FIG. 2.

[2] = tested on: HepG2 cells modeled with oleic acid; assay: Triglyceride content in HepG2 cells modeled with oleic acid (triglyceride kit); type: cell-based; conditions: 24 h, 0.3 mmol/L oleic acid; for reduce the TG content in cells by: Example 3, 2 μg/mL
Procedure: • a. HepG2 cells in good growth condition were inoculated in a 6-well plate at 2*10^5 cells/mL, 1 mL per well, cultured for 12 h, and after the cells adhered to the wall, the medium was discarded. • b. after the medium was discarded, a blank group, a modeling group and a dosing group were set. • Blank control group: added with 2 mL of a complete medium per well; • Oleic acid modeling group: added with 2 mL of a complete medium containing 0.3 mmol/L of oleic acid per well; • MC low dose group: added with 2 mL of a complete medium containing 0.3 mmol/L of oleic acid and 2 μg/mL of Monascinol per well; • MC middle dose group: added with 2 mL of a complete medium containing 0.3 mmol/L of oleic acid and 4 μg/mL of Monascinol per well; • MC high dose group: added with 2 mL of a complete medium containing 0.3 mmol/L of oleic acid and 8 μg/mL of Monascinol per well; • After completing the administration, the cells of each group were cultured for 24 hours and then collected, a triglyceride kit (Beijing Applygen Technologies Inc.) was utilized to measure the content of triglyceride in HepG2 cells of each group. • c. results are shown in FIG. 3. Different letters indicate significant differences from the blank group, P<0.01.
Firstly, normal HepG2 cells were obtained, and HepG2 cells modeled with oleic acid were obtained according to the method in Example 1 (a concentration of oleic acid was 0.3 mmol/L).
(§2) On day 1, blank control group: normally cultured HepG2 cells without treatment; oleic acid modeling group (the concentration of oleic acid is 0.3 mmol/L): normally culture HepG2 cells modeled with oleic acid without treatment; MC group: HepG2 cells modeled with oleic acid were administered with 2 μg/mL of Monascinol, i.e., MC; MS group: HepG2 cells modeled with oleic acid were administered with 2 μg/mL of Monascin (MS).
After completing the administration, the cells of each group were cultured for 24 hours and then collected, a triglyceride kit (Beijing Applygen Technologies Inc.) was utilized to measure the content of triglyceride in HepG2 cells of each group, results are shown in FIG. 4.

[3] = tested on: HepG2 cells modeled with oleic acid; assay: Oil red O staining of lipid drops in HepG2 cells modeled with oleic acid; type: cell-based; conditions: 2 μg/mL, inverted microscope ×400
Procedure: as §1, §2
Morphological observation was further carried out by oil red 0 staining, and the results are shown in FIGS. 5A-5C (inverted microscope×400), FIG. 5A is a diagram of lipid accumulation in HepG2 cells of an oleic acid modeling group; FIG. 5B is a diagram of lipid accumulation in HepG2 cells of an MS group; FIG. 5C is a diagram of lipid accumulation in HepG2 cells of an MC group. […] This is consistent with the test result of TG.

[4] = target: T1, pancrelipase (Type II, derived from a porcine pancreas) (Sus scrofa, UniProt P00591); assay: Inhibitory activity on pancrelipase, 4-MUO substrate, fluorescence detection; type: biochemical; conditions: 4-MUO 0.1 mM, lipase 1 mg/mL, 30 mins at 25° C.
T1 construct: pancrelipase (Type II, derived from a porcine pancreas); from tissue; host or cells: porcine pancreas
T1 sequence (P00591 1-450): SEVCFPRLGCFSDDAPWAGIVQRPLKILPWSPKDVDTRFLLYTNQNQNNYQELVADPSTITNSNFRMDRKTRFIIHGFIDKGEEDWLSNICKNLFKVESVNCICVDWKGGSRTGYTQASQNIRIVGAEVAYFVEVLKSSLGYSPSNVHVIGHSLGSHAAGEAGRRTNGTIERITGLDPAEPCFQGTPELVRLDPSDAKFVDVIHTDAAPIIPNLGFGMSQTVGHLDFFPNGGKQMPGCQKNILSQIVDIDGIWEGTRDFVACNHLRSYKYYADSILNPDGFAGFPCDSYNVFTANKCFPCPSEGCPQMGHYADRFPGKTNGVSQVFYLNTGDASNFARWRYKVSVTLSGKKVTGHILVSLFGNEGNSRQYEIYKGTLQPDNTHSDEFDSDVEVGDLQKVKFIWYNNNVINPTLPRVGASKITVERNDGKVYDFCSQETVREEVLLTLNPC
Source text: In an experiment, 4-methylumbelliferyl oleate (4-MUO) was used as a substrate and a fluorescence detection method was used to evaluate the inhibitory activity of MC on pancrelipase (Type II, derived from a porcine pancreas).
The following groups were set (see also Table 1): • Blank group: no MC sample, only substrate, pancrelipase and Tris-HCL buffer; • Blank background group: no MC sample and pancrelipase, only substrate and Tris-HCL buffer; • Sample background group: no pancrelipase, only MC sample, substrate and Tris-HCL buffer; • Sample group: no Tris-HCL buffer, only MC sample, substrate and pancrelipase.
The inhibition rate was calculated according to the following formula: Inhibition rate (%)=[(A1−A2)−(A3−A4)]/(A1−A2)×100
A1: Fluorescence value in blank group; A2: Fluorescence value in blank background group; A3: Fluorescence value in sample group; and A4: Fluorescence value in sample background group.
Three parallel experiments were set for each group, in which the concentration of 4-MUO is 0.1 mM, and the MC samples were dissolved in DMSO (set 6 different concentrations: 5, 10, 20, 40, 80 and 160 μg/mL), the concentration of the lipase solution is 1 mg/mL. […] Therefore, the product 4-methylumbelliferone was determined under conditions of an excitation wavelength of 360±40 nm and an emission wavelength 460±40 nm. […]

[5] = target: T2, pancrelipase (Sus scrofa, UniProt P00591); assay: Type of inhibition on pancrelipase (order of addition, Lineweaver-Burk double reciprocal plot); type: biochemical, porcine; conditions: 160 μg/mL MC, lipase 1 mg/mL
T2 construct: pancrelipase (Type II, derived from a porcine pancreas); from tissue; host or cells: porcine pancreas
T2 sequence (P00591 1-450): T1 sequence (P00591 1-450)
Procedure: According to different forms and characteristics of binding between enzymes and inhibitors, the inhibitions can be divided into two types: reversible inhibition and irreversible inhibition. The irreversible inhibition usually binds to a group in an enzyme protein by a relatively strong covalent bond to inactivate an enzyme. […] In this part of experiment, MS and AK were used as controls, and the type of inhibition of MC was determined by changing the order of adding reactants, the intervention concentrations of the three pigment inhibitors were all 80 μg/mL. […]
The type of inhibition of MC on pancrelipase was determined based on the results of Lineweaver-burk double reciprocal plot method as follows.
A basic process of experiment of drawing the Lineweaver-Burk curve was: under the condition of a determined lipase concentration (1 mg/mL), the enzymatic reaction rates were measured with a series of different substrate concentrations. […]

[6] = tested on: Golden Syrian hamsters fed with high-fat diet; assay: High-fat diet hamster experiment, 10 weeks gavage; type: in vivo, Golden Syrian hamster
Procedure: 24 male Golden Syrian hamsters (hamsters for short) used in the animal experiment were purchased from Beijing Vital River Laboratory Animal Technology Co., Ltd., weighing 110-120 g, and aged 8 weeks.
After acclimation for a period of time, they were randomly divided into 3 groups, each with 8 animals, and the grouping and experiments were carried out as follows:
Every day starting from Day 1: • Normal group (NOR): take normal-chow diet freely, and gavage the same amount of CMC-Na solution as the MC group; • High fat group (HFD): take high-fat chow diet freely, and gavage the same amount of CMC-Na solution as the MC group; • MC group: take high-fat chow diet freely, and gavage MC (dissolved in CMC-Na solution) at a dose of 20 mg/kg body weight.
The weight and food intake of the hamsters were measured every week. After 10 weeks, tissue samples or serum samples were collected and the following analysis was performed.
TC and TG in the liver were extracted based on the Folch method, the TC and TG detection kits produced by Nanjing Jiancheng Bioengineering Institute was used to detect the contents of TC and TG in liver tissue according to the method provided in the instructions.
Cobas8000 E602 full-automatic biochemical analyzer (Roche Diagnostics Co., Ltd., Germany) was used to measure TC and TG in serum of collected serum samples.

[7] = high-fat diet, gavage 20 mg/kg body weight daily
[8] = histology, 100× and 400× light microscope, 20 mg/kg

Row | Structure (SMILES) | survival rate of cells ([1]; administration concentration 12 μg/mL) [%] | TG content in the cells decreased by (vs modeling group) ([2]; Example 2, 2 μg/mL) [%] | TG content in the cells decreased by (vs modeling group) ([2]; Example 2, 4 μg/mL) [%] | TG content in the cells decreased by (vs modeling group) ([2]; Example 2, 8 μg/mL) [%] | reduce the TG content in cells by [2] [%] | lipid drops in the cells, oil red O staining vs oleic acid modeling group [3] | IC50 [4] [µM] | type of inhibition on pancrelipase [5] | Fat index (weight of perirenal and periepididymal fat pad/weight of body) [6, 7] | Liver tissue TC [6, 7] | Liver tissue TG [6, 7] | Liver weight [6, 7] | Serum TC [6, 7] | Serum TG [6, 7] | Weight gain [6, 7] | Weight of periepididymal fat pad [6, 7] | Weight of perirenal fat pad [6, 7] | adipose tissue sections: volume of periepididymal and perirenal adipose cells vs HFD group [6, 8] | liver tissue sections: lipid accumulation in liver cells vs HFD group [6, 8] | survival rate of cells ([1]; administration concentration 10 μg/mL or more) [%]
1 | C/C=C/C1=CC2=C(CO1)C[C@]1(C)OC(=O)[C@H](C(O)CCCCC)[C@H]1C2 (stereo partly drawn) [MC, Monascinol] | 66.7 | 38.9 | 34.6 | 51.3 | 33.3 | reduce lipid drops in the cells and lighten color | 219 | anti-competitive inhibition | 3.56 ± 0.26^a | 20.66 ± 0.58^c mg/g | 9.62 ± 0.34^a mg/g | 4.21 ± 0.17^a g | 4.73 ± 0.21^b mmol/L | 2.97 ± 0.39^c mmol/L | 22.33 ± 4.12^c g | 2.99 ± 0.28^a g | 1.62 ± 0.19^a g | significantly smaller volume than that in the HFD group | significantly reduced | 
2 | C/C=C/C1=CC2=C(CO1)C(=O)[C@]1(C)OC(=O)[C@H](C(=O)CCCCC)[C@H]1C2 [MS, Monascin] |  |  |  |  | 26.3 |  |  |  |  |  |  |  |  |  |  |  |  |  |  | 36.7
